What was measured:
[1] = test system: Botryotinia fuckeliana (Botrytis cinerea); assay: Botryotinia fuckeliana (Botrytis cinerea) / liquid culture (gray mould); format: cell-based; conditions: growth inhibition photometrically 3-4 days after application, read-out: control of Botryotinia fuckeliana
Protocol: (§1) Example B2: Botryotinia fuckeliana (Botrytis cinerea)/Liquid Culture (Gray Mould) Conidia of the fungus from cryogenic storage are directly mixed into nutrient broth (Vogels broth). After placing a (DMSO) solution of test compound into a microtiter plate (96-well format), the nutrient broth containing the fungal spores is added. The test plates are incubated at 24° C. and the inhibition of growth is determined photometrically 3-4 days after application.

[2] = test system: Alternaria solani; assay: Alternaria solani / tomato / leaf disc (early blight); format: in vivo; conditions: foliar, tomato leaf disks, sprayed 2 days before inoculation, compared to untreated control
Protocol: Example B1: Alternaria solani/Tomato/Leaf Disc (Early Blight) Tomato leaf disks cv. Baby are placed on agar in multiwell plates (24-well format) and sprayed with the formulated test compound diluted in water. The leaf disks are inoculated with a spore suspension of the fungus 2 days after application. The inoculated leaf disks are incubated at 23° C./21° C.

[3] = test system: Pyrenophora teres; assay: Pyrenophora teres / barley / leaf disc preventative (net blotch); format: in vivo; conditions: foliar, barley leaf segments, inoculated 2 days after application
Protocol: Example B14: Pyrenophora teres/Barley/Leaf Disc Preventative (Net Blotch) Barley leaf segments cv. Hasso are placed on agar in a multiwell plate (24-well format) and sprayed with the formulated test compound diluted in water. The leaf segments are inoculated with a spore suspension of the fungus 2 days after application. The inoculated leaf segments are incubated at 20° C. and 65% rh under a light regime of 12 h light/12 h darkness in a climate cabinet and the activity of a compound is assessed as disease control compared to untreated when an appropriate level of disease damage appears in untreated check leaf segments (5-7 days after application).

[4] = test system: Monographella nivalis (Microdochium nivale); assay: Monographella nivalis (Microdochium nivale) / liquid culture (foot rot cereals); format: cell-based; conditions: growth inhibition photometrically 4-5 days after application, read-out: control of Monographella nivalis
Protocol: as §1, with “B9: Monographella nivalis (Microdochium nivale)/Liquid” for “B2: Botryotinia fuckeliana (Botrytis cinerea)/Liquid”, “(Foot Rot Cereals)” for “(Gray Mould)”, “(PDB potato dextrose” for “(Vogels”, “4-5” for “3-4”

[5] = test system: Mycosphaerella graminicola (Septoria tritici); assay: Mycosphaerella graminicola (Septoria tritici) / liquid culture (Septoria blotch); format: cell-based; conditions: Zymoseptoria tritici, growth inhibition photometrically 4-5 days after application, read-out: control of Mycosphaerella graminicola
Protocol: as §1, with “B16: Mycosphaerella graminicola (Septoria tritici)/Liquid” for “B2: Botryotinia fuckeliana (Botrytis cinerea)/Liquid”, “(Septoria Blotch)” for “(Gray Mould)”, “(PDB potato dextrose” for “(Vogels”, “4-5” for “3-4”

[6] = test system: Phaeosphaeria nodorum (Septoria nodorum); assay: Phaeosphaeria nodorum (Septoria nodorum) / wheat / leaf disc preventative (glume blotch); format: in vivo; conditions: Parastagonospora nodorum, foliar, wheat leaf segments, inoculated 2 days after application
Protocol: Example B8: Phaeosphaeria nodorum (Septoria nodorum)/Wheat/Leaf Disc Preventative (Glume Blotch) Wheat leaf segments cv. Kanzler are placed on agar in a multiwell plate (24-well format) and sprayed with the formulated test compound diluted in water. The leaf disks are inoculated with a spore suspension of the fungus 2 days after application. The inoculated test leaf disks are incubated at 20° C. and 75% rh under a light regime of 12 h light/12 h darkness in a climate cabinet and the activity of a compound is assessed as percent disease control compared to untreated when an appropriate level of disease damage appears in untreated check leaf disks (5-7 days after application).

[7] = test system: Glomerella lagenarium (Colletotrichum lagenarium); assay: Glomerella lagenarium (Colletotrichum lagenarium) / liquid culture (anthracnose); format: cell-based; conditions: Colletotrichum orbiculare, growth inhibition photometrically 3-4 days after application, read-out: control of Glomerella lagenarium
Protocol: as §1, with “B3: Glomerella lagenarium (Colletotrichum lagenarium)/Liquid” for “B2: Botryotinia fuckeliana (Botrytis cinerea)/Liquid”, “(Anthracnose)” for “(Gray Mould)”, “(PDB potato dextrose” for “(Vogels”, “measured” for “determined”

[8] = test system: Blumeria graminis f. sp. tritici (Erysiphe graminis f. sp. tritici); assay: Blumeria graminis f. sp. tritici / wheat / leaf disc preventative (powdery mildew on wheat); format: in vivo; conditions: foliar, wheat leaf segments, inoculated 1 day after application
Protocol: Example B4: Blumeria graminis f. Sp. Tritici (Erysiphe graminis f. Sp. Tritici)/Wheat/Leaf Disc Preventative (Powdery Mildew on Wheat) Wheat leaf segments cv. Kanzler are placed on agar in a multiwell plate (24-well format) and sprayed with the formulated test compound diluted in water. The leaf disks are inoculated by shaking powdery mildew infected plants above the test plates 1 day after application. The inoculated leaf disks are incubated at 20° C. and 60% rh under a light regime of 24 h darkness followed by 12 h light/12 h darkness in a climate chamber and the activity of a compound is assessed as percent disease control compared to untreated when an appropriate level of disease damage appears on untreated check leaf segments (6-8 days after application).

[9] = test system: Mycosphaerella arachidis (Cercospora arachidicola); assay: Mycosphaerella arachidis (Cercospora arachidicola) / liquid culture (early leaf spot); format: cell-based; conditions: growth inhibition photometrically 4-5 days after application, read-out: control of Mycosphaerella arachidis
Protocol: as §1, with “B10: Mycosphaerella arachidis (Cercospora arachidicola)/Liquid” for “B2: Botryotinia fuckeliana (Botrytis cinerea)/Liquid”, “(Early Leaf Spot)” for “(Gray Mould)”, “(PDB potato dextrose” for “(Vogels”, “4-5” for “3-4”

[10] = test system: Fusarium culmorum; assay: microbe, parasite or virus in culture; format: cell-based; conditions: read-out: control of Fusarium culmorum

CC(C)C(CNC(=O)c1cc(-c2ccc(F)cc2F)on1)(c1cnn(C)c1)c1cccc(Cl)n1 (stereo not shown) [Compound P-32, N-[2-(6-chloro-2-pyridyl)-3-methyl-2-(1-methylpyrazol-4-yl)butyl]-5-(2,4-difluorophenyl) isoxazole-3-carboxamide]
≥ 80%: inhibition of growth at 20 ppm [1] | pest or weed control at 200 ppm [2] | pest or weed control at 200 ppm [3] | inhibition of growth at 20 ppm [4] | inhibition of growth at 20 ppm [5] | pest or weed control at 200 ppm [6]

Cn1cc(C(C)(CNC(=O)c2cc(-c3ccc(F)cc3F)no2)c2cccc(Cl)n2)cn1 (stereo not shown) [Compound P-4, N-[2-(6-chloro-2-pyridyl)-2-(1-methylpyrazol-4-yl)propyl]-3-(2,4-difluorophenyl)isoxazole-5-carboxamide]
≥ 80%: pest or weed control at 200 ppm [2] | inhibition of growth at 20 ppm [7] | pest or weed control at 200 ppm [8]

CC(=O)Nc1ccc(C(C)(CNC(=O)c2cc(-c3ccc(F)cc3F)on2)c2cnn(C)c2)nc1 (stereo not shown) [Compound P-59, N-[2-(5-acetamido-2-pyridyl)-2-(1-methylpyrazol-4-yl)propyl]-5-(2,4-difluorophenyl) isoxazole-3-carboxamide]
≥ 80%: pest or weed control at 200 ppm [8]

CCCCc1nnc(C(=O)NCC(C)(c2cnn(C)c2)c2cccc(Cl)n2)s1 (stereo not shown) [Compound P-108, 5-butyl-N-[2-(6-chloro-2-pyridyl)-2-(1-methylpyrazol-4-yl)propyl]-1,3,4-thiadiazole-2-carboxamide]
≥ 80%: inhibition of growth at 20 ppm [1] | inhibition of growth at 20 ppm [9] | inhibition of growth at 20 ppm [4] | inhibition of growth at 20 ppm [7] | inhibition of growth at 20 ppm [10] | inhibition of growth at 20 ppm [5]

Cn1cc(C(C)(CNC(=O)c2cc(-c3ccc(F)cc3F)on2)c2cncc(Cl)n2)cn1 (stereo not shown) [Compound P-21, N-[2-(6-chloropyrazin-2-yl)-2-(1-methylpyrazol-4-yl)propyl]-5-(2,4-difluorophenyl) isoxazole-3-carboxamide]
≥ 80%: inhibition of growth at 20 ppm [1] | pest or weed control at 200 ppm [3] | pest or weed control at 200 ppm [8] | inhibition of growth at 20 ppm [5]

Cn1cc(C(C)(CNC(=O)c2nnc(-c3ccc(F)cc3F)s2)c2ccccn2)cn1 (stereo not shown) [Compound P-6, 5-(2,4-difluorophenyl)-N-[2-(1-methylpyrazol-4-yl)-2-(2-pyridyl)propyl]-1,3,4-thiadiazole-2-carboxamide]
≥ 80%: inhibition of growth at 20 ppm [1] | pest or weed control at 200 ppm [2] | pest or weed control at 200 ppm [3] | inhibition of growth at 20 ppm [4] | inhibition of growth at 20 ppm [7] | pest or weed control at 200 ppm [8] | inhibition of growth at 20 ppm [5] | pest or weed control at 200 ppm [6]

Cn1cc(C(C)(CNC(=O)c2cc(-c3ccc(F)cc3F)on2)c2ccccn2)cn1 (stereo not shown) [Compound P-11, 5-(2,4-difluorophenyl)-N-[2-(1-methylpyrazol-4-yl)-2-(2-pyridyl)propyl] isoxazole-3-carboxamide]
≥ 80%: inhibition of growth at 20 ppm [1] | pest or weed control at 200 ppm [2] | pest or weed control at 200 ppm [3] | inhibition of growth at 20 ppm [4] | inhibition of growth at 20 ppm [7] | pest or weed control at 200 ppm [8] | inhibition of growth at 20 ppm [5] | pest or weed control at 200 ppm [6]

CN(C)C(=O)c1cccc(C(C)(CNC(=O)c2cc(-c3ccc(F)cc3F)on2)c2cnn(C)c2)n1 (stereo not shown) [Compound P-44, 5-(2,4-difluorophenyl)-N-[2-[6-(dimethylcarbamoyl)-2-pyridyl]-2-(1-methylpyrazol-4-yl)propyl]isoxazole-3-carboxamide]
≥ 80%: pest or weed control at 200 ppm [2] | pest or weed control at 200 ppm [3] | pest or weed control at 200 ppm [6]

Cn1cc(C(C)(CNC(=O)c2cc(-c3ccc(F)cc3F)on2)c2ccc(C#N)cn2)cn1 (stereo not shown) [Compound P-75, N-[2-(5-cyano-2-pyridyl)-2-(1-methylpyrazol-4-yl)propyl]-5-(2,4-difluorophenyl) isoxazole-3-carboxamide]
≥ 80%: pest or weed control at 200 ppm [2] | pest or weed control at 200 ppm [3] | inhibition of growth at 20 ppm [4] | inhibition of growth at 20 ppm [5]

CC(=O)c1cccc(C(C)(CNC(=O)c2cc(-c3ccc(F)cc3F)on2)c2cnn(C)c2)n1 (stereo not shown) [Compound P-48, N-[2-(6-acetyl-2-pyridyl)-2-(1-methylpyrazol-4-yl)propyl]-5-(2,4-difluorophenyl) isoxazole-3-carboxamide]
≥ 80%: inhibition of growth at 20 ppm [1] | pest or weed control at 200 ppm [2] | inhibition of growth at 20 ppm [9] | pest or weed control at 200 ppm [3] | inhibition of growth at 20 ppm [4] | inhibition of growth at 20 ppm [7] | inhibition of growth at 20 ppm [5] | pest or weed control at 200 ppm [6]

Cn1cc(C(C)(CNC(=O)c2cc(-c3ccc(F)cc3F)on2)c2ccnc(Cl)n2)cn1 (stereo not shown) [Compound P-64, N-[2-(2-chloropyrimidin-4-yl)-2-(1-methylpyrazol-4-yl)propyl]-5-(2,4-difluorophenyl) isoxazole-3-carboxamide]
≥ 80%: inhibition of growth at 20 ppm [1] | pest or weed control at 200 ppm [2] | pest or weed control at 200 ppm [3] | inhibition of growth at 20 ppm [4] | inhibition of growth at 20 ppm [7] | pest or weed control at 200 ppm [8] | inhibition of growth at 20 ppm [5] | pest or weed control at 200 ppm [6]

CO/N=C(/C)c1ccc(C(C)(CNC(=O)c2cc(-c3ccc(F)cc3F)on2)c2cnn(C)c2)nc1 (stereo not shown) [Compound P-61, 5-(2,4-difluorophenyl)-N-[2-[5-[(Z)-N-methoxy-C-methyl-carbonimidoyl]-2-pyridyl]-2-(1-methylpyrazol-4-yl)propyl]isoxazole-3-carboxamide]
≥ 80%: pest or weed control at 200 ppm [2] | inhibition of growth at 20 ppm [9] | pest or weed control at 200 ppm [3] | inhibition of growth at 20 ppm [4] | inhibition of growth at 20 ppm [7] | inhibition of growth at 20 ppm [5] | pest or weed control at 200 ppm [6]

Cn1cc(C(C)(CNC(=O)c2noc(-c3ccc(F)cc3F)n2)c2cccc(Cl)n2)cn1 (stereo not shown) [Compound P-83, N-[2-(6-chloro-2-pyridyl)-2-(1-methylpyrazol-4-yl)propyl]-5-(2,4-difluorophenyl)-1,2,4-oxadiazole-3-carboxamide]
≥ 80%: inhibition of growth at 20 ppm [1] | pest or weed control at 200 ppm [2] | inhibition of growth at 20 ppm [9] | pest or weed control at 200 ppm [3] | inhibition of growth at 20 ppm [4] | inhibition of growth at 20 ppm [7] | inhibition of growth at 20 ppm [10] | pest or weed control at 200 ppm [8] | inhibition of growth at 20 ppm [5] | pest or weed control at 200 ppm [6]

From patent US20240343717A1, “MICROBIOCIDAL PYRAZOLE DERIVATIVES” (SYNGENTA CROP PROTECTION AG, priority 2021, published 2024)
